The target in data set [1] is T1, 7620 (Trypanosoma brucei, UniProt Q57V83).
T1 construct: gene Tb08.30P3.140; full-length ORF, untagged, in pDR197; expressed in S. cerevisiae 22574d
The class given is cell-based. The following applies: pH 7.0, 30 °C, excess competitor.

Substrate in data set [2]: O=C(O)[C@@H]1CCCN1
Kind of data set: cells, lysate or membranes. The following applies: pH 7.0, 30 °C, 100 mM glucose, labelled compound.

As to `N[C@@H](CS)C(=O)O` [cysteine], the “relative uptake rate (%)” value in data set [1] was “proline being the best substrate, followed by alanine and cysteine”.

In the case of `C[C@H](N)C(=O)O` [alanine], the “relative uptake rate (%)” value in data set [1] was “proline being the best substrate, followed by alanine and cysteine”.

B1: 7620 (Trypanosoma brucei brucei TREU927) (protein)
chain: MTSINAQPPNSATYPQDDHGSAEVVNLNAEVERPQPEEQKDGGGCFARVSLFMATIIPPGGIAASAFNIGSTTVGAGIFGLPAAANSSGLVMAMIYLIIITAMTIFSIYALGVAAERTNIRTYEGVARALLGPWGAYYTAATRAFFSFSACVAYVISVGDILSATLKGTNAPDFLKQKSGNRLLTSLMWLCFMLPLVIPRHIDSLRHVSTIAFILMIYMVLVVVVHSCMNGLPENIKNVSVGKDDNAEIILFNSGNRAIEGLGVFIFSYLFQITAYEVYMDMTNRSVGKFVLVVTIAMGMCLPMYALTAFFGYMDFGRNVTGSVLLQYDPVNYPAVMVGFVGVLVMLFVSYALLGLACRNALYDVIGWDFREVAFWKHCIAVVTLSIVMLLCGLFIPKITTVLGFAGSFCGGSLGFILPALFFMYSGGFTWQKVGPFYYISTYVLLITGVIAAVFGTGATIWAVTVG
What is called Km is the concentration of substrate that gives half-maximal velocity. B1: in data set [2], the Km was found to be 600 µM.

For the origin of these results see article PMC8094907 (The Journal of Biological Chemistry, 2021).
